Assay results: patent publication US20150119363A1, “METHODS OF TREATING BACTERIAL INFECTIONS” (Rampex Pharmaceuticals, Inc., priority 2012, published 2015)
In brackets after ≈: the same amount, converted by molar mass.

How the values were obtained:
[1] = system: KP1004 KPC-2; assay: Dose titration biapenem potentiation assay (MPC1); assay type: cell-based, Klebsiella pneumoniae
Method: (§1) The potency and spectrum of β-lactamase inhibitors is also determined by assessing their biapenem potentiation activity in a dose titration potentiation assay using strains expressing serine carbapemenases (such as KPC). The potentiation effect is observed as the ability of BLI compounds to inhibit growth in the presence of sub-inhibitory concentration of biapenem. […] Biapenem is present in the test medium at 1 μg/mL. Compounds tested at the highest concentration of 40 μg/mL. […] Table 5 summarizes BLI potency of biapenem potentiation (MPC1). Biapenem MIC for each strain is also shown.

[2] = system: KP1008 KPC-2; assay: Dose titration biapenem potentiation assay (MPC1); assay type: cell-based, Klebsiella pneumoniae
Method: as §1

[3] = system: EC1007 KPC-3; assay: Dose titration biapenem potentiation assay (MPC1); assay type: cell-based, Escherichia coli
Method: as §1

[4] = system: ECL1004 NMC-A; assay: Dose titration biapenem potentiation assay (MPC1); assay type: cell-based, Enterobacter cloacae
Method: as §1

[5] = system: Enterobacter cloacae ECL1058 (KPC-3, SHV-11, TEM-1); assay: Checkerboard assay, Compound 5 with biapenem; assay type: cell-based; settings: Enterobacter cloacae
Text: (§2) The potentiation effect is observed by the reduction of the minimum inhibitory concentration of β-lactam antibiotics in the presence of β-lactamase inhibitors (BLIs). […] Methods for Dilution of Antimicrobial Susceptibility Tests for Bacteria That Grow Aerobically—Eighth Edition; Approved Standard. CLSI Document M07-A8, 2009). In this assay, multiple dilutions of two drugs, namely BLI and β-lactam (biapenem), are being tested, alone and in combination, at concentrations equal to, above and below their respective minimal inhibitory concentrations (MICs). BLIs are solubilized in 10% DMSO at 10 mg/mL. Stock solutions are further diluted, according to the needs of a particular assay, in Mueller Hinton Broth (MHB). Stock solution can be stored at −80° C.
(§3) The checkerboard (CB) assay is performed in microtiter plates. Biapenem is diluted in the x axis, each column containing a single concentration of antibiotic. BLIs are diluted in the y axis, each row containing an equal concentration of BLI. The result of these manipulations is that each well of the microtiter plate contains a unique combination of concentrations of the two agents. The assay is performed in MHB with a final bacterial inoculum of 5×10^5 CFU/mL (from an early-log phase culture). Microtiter plates are incubated during 20 h at 35° C. and are read using a microtiter plate reader (Molecular Devices) at 650 nm as well as visual observation using a microtiter plate reading mirror.

[6] = system: Enterobacter cloacae ECL1059 (KPC-3, SHV-12, TEM-1); assay: Checkerboard assay, Compound 5 with biapenem; assay type: cell-based; settings: Enterobacter cloacae
Text: as §2, §3

[7] = system: Escherichia coli EC1007 (KPC-3); assay: Checkerboard assay, Compound 5 with biapenem; assay type: cell-based; settings: Escherichia coli
Text: as §2, §3

[8] = system: Klebsiella oxytoca KX1017 (KPC-2, OXA-2, SHV-30); assay: Checkerboard assay, Compound 5 with biapenem; assay type: cell-based; settings: Klebsiella oxytoca
Text: as §2, §3

[9] = system: Klebsiella oxytoca KX1018 (KPC-2, SHV-40, OXY-1); assay: Checkerboard assay, Compound 5 with biapenem; assay type: cell-based; settings: Klebsiella oxytoca
Text: as §2, §3

[10] = system: Klebsiella oxytoca KX1019 (KPC-2, OXA-2); assay: Checkerboard assay, Compound 5 with biapenem; assay type: cell-based; settings: Klebsiella oxytoca
Text: as §2, §3

[11] = system: Klebsiella pneumoniae KP1004 (KPC-2); assay: Checkerboard assay, Compound 5 with biapenem; assay type: cell-based; settings: Klebsiella pneumoniae
Text: as §2, §3

[12] = system: Klebsiella pneumoniae KP1008 (KPC-2); assay: Checkerboard assay, Compound 5 with biapenem; assay type: cell-based; settings: Klebsiella pneumoniae
Text: as §2, §3

[13] = system: Klebsiella pneumoniae KP1082 (KPC-2, SHV-1); assay: Checkerboard assay, Compound 5 with biapenem; assay type: cell-based; settings: Klebsiella pneumoniae
Text: as §2, §3

[14] = system: Klebsiella pneumoniae KP1083 (KPC-3, SHV-1, TEM-1); assay: Checkerboard assay, Compound 5 with biapenem; assay type: cell-based; settings: Klebsiella pneumoniae
Text: as §2, §3

[15] = system: Klebsiella pneumoniae KP1084 (KPC-3, SHV-11, TEM-1); assay: Checkerboard assay, Compound 5 with biapenem; assay type: cell-based; settings: Klebsiella pneumoniae
Text: as §2, §3

[16] = system: Klebsiella pneumoniae KP1087 (KPC-2, CTX-M-15, SHV-11, TEM-1); assay: Checkerboard assay, Compound 5 with biapenem; assay type: cell-based; settings: Klebsiella pneumoniae
Text: as §2, §3

[17] = system: Klebsiella pneumoniae KP1088 (KPC-3, SHV-11, TEM-1); assay: Checkerboard assay, Compound 5 with biapenem; assay type: cell-based; settings: Klebsiella pneumoniae
Text: as §2, §3

[18] = system: Escherichia coli (EC1061) NDM-1; assay: Biapenem MIC at various concentrations of Compound 5; assay type: cell-based; settings: Escherichia coli
[19] = system: Klebsiella pneumonia (KP1004) KPC-2; assay: as above; assay type: cell-based; settings: Klebsiella pneumoniae
[20] = system: Klebsiella pneumonia (KPM1097) NDM-1, KPC-2; assay: as above; assay type: cell-based; settings: Klebsiella pneumoniae
[21] = system: Klebsiella pneumoniae KP1004 (KPC-2); assay: Checkerboard assay, biapenem potentiation (MPC8); assay type: cell-based; settings: concentration to reduce biapenem MIC 8-fold
Method: (§4) The potency and spectrum of β-lactamase inhibitors was determined by assessing their antibiotic potentiation activity.
as §2, §3
(§5) Biapenem is a carbapenem β-lactam; only selected β-lactamases confer resistance to this class of antibiotics. Among them are serine carbapemenases that belong to class A and class D. Biapenem potentiation is studied in strains expressing various carbapenemases from these classes using CB assays. […] Cyclic boronic acid derivatives were capable of reducing biapenem MICs up to 1000-fold (Table 3).

[22] = system: Acinetobacter baumannii AB1054 (OXA-23); assay: Checkerboard assay, biapenem potentiation (MPC8); assay type: cell-based; settings: concentration to reduce biapenem MIC 8-fold
Method: as §4, §2, §3, §5

[23] = system: Acinetobacter baumannii AB1057 (OXA-58); assay: Checkerboard assay, biapenem potentiation (MPC8); assay type: cell-based; settings: concentration to reduce biapenem MIC 8-fold
Method: as §4, §2, §3, §5

[24] = target: T1, KPC-2 (Klebsiella pneumoniae KP1004 lysate) (Klebsiella pneumoniae, UniProt Q9F663); assay: Inhibition of biapenem hydrolysis by bacterial lysate; assay type: biochemical
T1 construct: Lysates were prepared from bacteria expressing various β-lactamases as a source of enzymes; endogenous in cells; host or cells: Klebsiella pneumoniae strains KP1004 and KP1008 (freeze-thaw lysate supernatants)
Method: (§6) The activity of β-lactamase inhibitors to inhibit hydrolysis of biapenem was studied. Lysates were prepared from bacteria expressing various β-lactamases as a source of enzymes. Bacterial lysates were prepared as follows. A single colony from the fresh overnight plate was transferred to 5 mL of LB broth and grown to OD600=0.6-0.8. Next, this culture was transferred to 500 mL of LB and grown to OD600=0.7-0.9. Cells were pelleted by centrifugation at 5000 RPM (JA-14 rotor) for 15 minutes at room temperature. The pellet was resuspended in 10 mL of PBS. Five freeze-thaw cycles by putting cells at −20° C. and thawing them at the room temperature were next applied. After the last thaw step cells were spun down at 18K for 30 minutes and the supernatant was collected. This lysate was stored at −20° C.
(§7) Next, the activity of bacterial lysates was optimized for biapenem cleavage as follows. 50 μl of buffer A (50 mM Sodium Phosphate pH=7; 0.5% glucose, 1 mM MgCl2) was added to each well of 96-well UV-transparent plate. 50 μl of lysate was titrated vertically in 96-well plate column to generate 2-fold lysate dilutions. 100 μl of buffer A was added to each well, placed in plate reader at 37° C. and incubated for 15 minutes. 50 μl of 50 μg/mL solutions of biapenem in buffer A (pre-incubated at 37° C. for 15 minutes) were added to each well. Hydrolysis of biapenem was measured at 296 nm. This experiment was used to determine the optimal lysate dilution which produced a linear curve of relative UV signal that decreased to approximately OD=0.3-0.5 over 1 hour.
(§8) Finally, the potency of cyclic boronic acid derivative to inhibit the cleavage of biapenem cleavage by bacterial lysates was determined. 100 μl of buffer A (50 mM Sodium Phosphate pH=7; 0.5% glucose, 1 mM MgCl2) was added to each well of 96-well UV-transparent plate. 50 μl of 6× cyclic boronic acid derivative solution in buffer A was titrated vertically in 96-well plate column to generate 3-fold dilutions. 50 μl of diluted lysate in buffer A (optimal dilution is determined in experiment above) was added, and the plate was incubated in the plate reader at 37° C. for 15 minutes. 50 μl of 50 μg/mL solution of biapenem in buffer A (pre-incubated at 37° C. for 15 minutes) were next added to each well and hydrolysis of biapenem was recorded at 296 nm. EC50 of inhibition was determined by plotting the rate of biapenem cleavage vs. cyclic boronic acid derivative concentration.

[25] = target: T2, KPC-2 (Klebsiella pneumoniae KP1008 lysate) (Klebsiella pneumoniae, UniProt Q9F663); assay: as above; assay type: biochemical
T2 construct: Lysates were prepared from bacteria expressing various β-lactamases as a source of enzymes; endogenous in cells; host or cells: Klebsiella pneumoniae strains KP1004 and KP1008 (freeze-thaw lysate supernatants)
Method: as §6, §7, §8

[26] = target: T3, KPC-3 (Escherichia coli EC1007 lysate) (Klebsiella pneumoniae, UniProt Q9F663, H272Y); assay: as above; assay type: biochemical; settings: EC1007 KPC-3 lysate; read-out: IC50 (μg/mL) of inhibition of biapenem hydrolysis
T3 construct: Lysates were prepared from bacteria expressing various β-lactamases as a source of enzymes; endogenous in cells; host or cells: Escherichia coli strain EC1007 (freeze-thaw lysate supernatant)
Method: as §6, §7, §8

[27] = target: T4, SME-2 (Serratia marcescens SM1000 lysate) (Serratia marcescens, UniProt P52682); assay: as above; assay type: biochemical; settings: SM1000 SME-2 lysate; read-out: IC50 (μg/mL) of inhibition of biapenem hydrolysis
T4 construct: Lysates were prepared from bacteria expressing various β-lactamases as a source of enzymes
Method: as §6, §7, §8

T3 sequence (Q9F663 25-293 H272Y): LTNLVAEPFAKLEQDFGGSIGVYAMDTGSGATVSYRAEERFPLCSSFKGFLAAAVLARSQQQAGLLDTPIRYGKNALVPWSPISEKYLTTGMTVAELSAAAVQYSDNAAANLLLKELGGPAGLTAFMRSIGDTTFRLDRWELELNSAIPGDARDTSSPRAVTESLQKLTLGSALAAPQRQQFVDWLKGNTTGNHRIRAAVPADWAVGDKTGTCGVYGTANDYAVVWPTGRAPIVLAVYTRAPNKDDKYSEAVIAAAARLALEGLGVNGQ
T4 sequence (P52682 28-294 limits assumed): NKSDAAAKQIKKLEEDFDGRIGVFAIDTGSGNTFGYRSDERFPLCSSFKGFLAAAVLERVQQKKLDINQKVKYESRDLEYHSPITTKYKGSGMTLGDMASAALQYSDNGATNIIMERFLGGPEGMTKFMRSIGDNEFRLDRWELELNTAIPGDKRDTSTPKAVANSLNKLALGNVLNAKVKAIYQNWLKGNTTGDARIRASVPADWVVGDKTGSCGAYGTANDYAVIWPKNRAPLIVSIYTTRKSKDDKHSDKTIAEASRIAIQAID
T2 sequence (Q9F663 25-293 limits assumed): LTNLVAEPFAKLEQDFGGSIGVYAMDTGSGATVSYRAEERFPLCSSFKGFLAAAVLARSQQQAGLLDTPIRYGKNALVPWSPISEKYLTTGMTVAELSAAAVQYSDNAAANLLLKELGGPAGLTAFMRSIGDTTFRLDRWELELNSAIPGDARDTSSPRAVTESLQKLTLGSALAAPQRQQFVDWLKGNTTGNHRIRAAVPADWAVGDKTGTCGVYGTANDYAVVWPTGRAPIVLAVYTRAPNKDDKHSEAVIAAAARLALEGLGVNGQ
T1 sequence (Q9F663 25-293 limits assumed): as above

## C[C@@H](O)[C@H]1C(=O)N2C(C(=O)[O-])=C(SC3Cn4cnc[n+]4C3)[C@H](C)[C@H]12 (some centres unmarked) [Biapenem, reference compound]
[1]; Klebsiella pneumoniae, KP1004 KPC-2
  MIC: > 8 µg/mL
[2]; Klebsiella pneumoniae, KP1008 KPC-2
  MIC: 8 µg/mL
[3]; Escherichia coli, EC1007 KPC-3
  MIC: 4 µg/mL
[4]; Enterobacter cloacae, ECL1004 NMC-A
  MIC: 8 µg/mL
[5]
  MIC: > 4 µg/mL
[6]
  MIC: 0.5 to 4 µg/mL
[7]
  MIC: > 4 µg/mL
[8]
  MIC: 0.5 to 4 µg/mL
[9]
  MIC: > 4 µg/mL
[10]
  MIC: > 4 µg/mL
[11]
  MIC: > 4 µg/mL
[12]
  MIC: > 4 µg/mL
[13]
  MIC: 0.5 to 4 µg/mL
[14]
  MIC: > 4 µg/mL
[15]
  MIC: > 4 µg/mL
[16]
  MIC: > 4 µg/mL
[17]
  MIC: > 4 µg/mL
[18]
  MIC: 0.125 µg/mL (≈ 0.357 µM)
[19]
  MIC: 8 µg/mL (≈ 22.8 µM)
[20]
  MIC: 16 µg/mL (≈ 45.7 µM)

## O=C(O)CC1CC[C@H](NC(=O)Cc2ccccc2)B(O)O1 (stereo partly drawn) [Compound 2, 2-((3R)-2-hydroxy-3-(2-phenylacetamido)-1,2-oxaborinan-6-yl)acetic acid]
[21]
  MPC8: X (X = MPC8 of less than 0.16 μg/mL.)

## CC(=O)N[C@H]1CCC(CC(=O)O)OB1O (stereo partly drawn) [Compound 3, 2-((3R)-3-acetamido-2-hydroxy-1,2-oxaborinan-6-yl)acetic acid]
[22]
  MPC8: Z (Z = MPC8 of greater than 1 μg/mL.)
[23]
  MPC8: Z (Z = MPC8 of greater than 1 μg/mL.)
[21]
  MPC8: X (X = MPC8 of less than 0.16 μg/mL.)
[24]
  IC50: > 4.65 µM
[25]
  IC50: > 4.65 µM
[26]
  IC50: 0.465 to 4.65 µM
[27]
  IC50: > 4.65 µM
[1]; biapenem 1 μg/mL
  BPM MPC1 KP1004 KPC-2: X (X = MPC1 of less than 1 μg/mL.)
[2]; biapenem 1 μg/mL
  BPM MPC1 KP1008 KPC-2: X (X = MPC1 of less than 1 μg/mL.)
[3]; biapenem 1 μg/mL
  BPM MPC1 EC1007 KPC-3: X (X = MPC1 of less than 1 μg/mL.)
[4]; biapenem 1 μg/mL
  BPM MPC1 ECL1004 NMC-A: Y (Y = MPC1 of 1 μg/mL to 5 μg/mL.)
